Key:
[1] = Metabolic stability in human microsome assessed as intrinsic clearance incubated for 45 mins in presence of NADPH regenerating system by LC-MS/MS analysis; assay type: ADME; details: microsomes
[2] = Permeability of compound across basolateral to apical side in dog wild type MDCK cells; assay type: ADME, cell-based, Canis lupus familiaris; details: read-out: permeability
[3] = Permeability of compound across basolateral to apical side in dog wild type MDCK-MDR1 cells; assay type: ADME, cell-based, Canis lupus familiaris; details: read-out: permeability
[4] = Clearance in Sprague-Dawley rat 0.3 mg/kg, iv measured at 0.083 to 24 hrs by LC-MS/MS analysis; assay type: ADME, organism-based; details: in vivo, time 0.083-24 hrs
[5] = Half life in Sprague-Dawley rat 0.3 mg/kg, iv measured at 0.083 to 24 hrs by LC-MS/MS analysis; assay type: ADME, organism-based; details: in vivo, time 0.083-24 hrs
[6] = Metabolic stability in rat microsome assessed as intrinsic clearance incubated for 45 mins in presence of NADPH regenerating system by LC-MS/MS analysis; assay type: ADME; details: microsomes
[7] = Oral bioavailability in Sprague-Dawley rat 0.3 mg/kg measured at 0.083 to 24 hrs by LC-MS/MS analysis; assay type: ADME, organism-based; details: in vivo, time 0.083-24 hrs
[8] = Permeability of compound across apical to basolateral side in dog wild type MDCK-MDR1 cells; assay type: ADME, cell-based, Canis lupus familiaris; details: read-out: permeability
[9] = Permeability of compound across apical to basolateral side in dog wild type MDCK cells; assay type: ADME, cell-based, Canis lupus familiaris; details: read-out: permeability
[10] = Volume of distribution at steady state in Sprague-Dawley rat 3 mg/kg, po or 3 mg/kg, iv measured at 0.083 to 24 hrs by LC-MS/MS analysis; assay type: ADME, organism-based; details: in vivo, time 0.083-24 hrs
[11] = Half life in iv dosed Beagle dog measured at 0.083 to 24 hrs by LC-MS/MS analysis; assay type: ADME, organism-based, Canis lupus familiaris; details: in vivo, time 0.083-24 hrs
[12] = Half life in iv dosed Sprague-Dawley rat measured at 0.083 to 24 hrs by LC-MS/MS analysis; assay type: ADME, organism-based; details: in vivo, time 0.083-24 hrs
[13] = Permeability of compound across basolateral to apical side in dog MDCK-MDR1 cells; assay type: ADME, cell-based, Canis lupus familiaris
[14] = Oral bioavailability in CD-1 mouse measured at 0.083 to 24 hrs by LC-MS/MS analysis; assay type: ADME, organism-based; details: in vivo, time 0.083-24 hrs
[15] = Volume of distribution at steady state in Sprague-Dawley rat measured at 0.083 to 24 hrs by LC-MS/MS analysis; assay type: ADME; details: in vivo, time 0.083-24 hrs, read-out: Vdss
[16] = Oral bioavailability in Cynomolgus monkey measured at 0.083 to 24 hrs by LC-MS/MS analysis; assay type: ADME, organism-based, Macaca fascicularis; details: in vivo, time 0.083-24 hrs
[17] = Clearance in iv dosed Sprague-Dawley rat measured at 0.083 to 24 hrs by LC-MS/MS analysis; assay type: ADME, organism-based; details: in vivo, time 0.083-24 hrs
[18] = Metabolic stability in monkey microsome assessed as intrinsic clearance incubated for 45 mins in presence of NADPH regenerating system by LC-MS/MS analysis; assay type: ADME, Macaca mulatta; details: rhesus monkey, microsomes, read-out: CLH
[19] = Oral bioavailability in Beagle dog measured at 0.083 to 24 hrs by LC-MS/MS analysis; assay type: ADME, organism-based, Canis lupus familiaris; details: in vivo, time 0.083-24 hrs
[20] = Metabolic stability in Beagle dog microsome assessed as intrinsic clearance incubated for 45 mins in presence of NADPH regenerating system by LC-MS/MS analysis; assay type: ADME, Canis lupus familiaris; details: microsomes, read-out: CLH
[21] = Metabolic stability in mouse microsome assessed as intrinsic clearance incubated for 45 mins in presence of NADPH regenerating system by LC-MS/MS analysis; assay type: ADME; details: microsomes, read-out: CLH
[22] = Clearance in iv dosed CD-1 mouse measured at 0.083 to 24 hrs by LC-MS/MS analysis; assay type: ADME, organism-based; details: in vivo, time 0.083-24 hrs
[23] = Oral bioavailability in […] Sprague-Dawley rat measured at 0.083 to 24 hrs by LC-MS/MS analysis; assay type: ADME, organism-based; details: in vivo, time 0.083-24 hrs
[24] = Half life in iv dosed CD-1 mouse measured at 0.083 to 24 hrs by LC-MS/MS analysis; assay type: ADME, organism-based; details: in vivo, time 0.083-24 hrs
[25] = Clearance in iv dosed Beagle dog measured at 0.083 to 24 hrs by LC-MS/MS analysis; assay type: ADME, organism-based, Canis lupus familiaris; details: in vivo, time 0.083-24 hrs
[26] = Half life in iv dosed Cynomolgus monkey measured at 0.083 to 24 hrs by LC-MS/MS analysis; assay type: ADME, organism-based, Macaca fascicularis; details: in vivo, time 0.083-24 hrs
[27] = Clearance in iv dosed Cynomolgus monkey measured at 0.083 to 24 hrs by LC-MS/MS analysis; assay type: ADME, organism-based, Macaca fascicularis; details: in vivo, time 0.083-24 hrs
[28] = Permeability of compound across apical to basolateral side in dog MDCK-MDR1 cells; assay type: ADME, cell-based, Canis lupus familiaris
[29] = Volume of distribution at steady state in CD-1 mouse measured at 0.083 to 24 hrs by LC-MS/MS analysis; assay type: ADME; details: in vivo, time 0.083-24 hrs, read-out: Vdss
[30] = Volume of distribution at steady state in Cynomolgus monkey measured at 0.083 to 24 hrs by LC-MS/MS analysis; assay type: ADME, Macaca fascicularis; details: in vivo, time 0.083-24 hrs, read-out: Vdss
[31] = Volume of distribution at steady state in Beagle dog measured at 0.083 to 24 hrs by LC-MS/MS analysis; assay type: ADME, Canis lupus familiaris; details: in vivo, time 0.083-24 hrs, read-out: Vdss
[32] = Dissociation constant, pKa of the compound; assay type: physicochemical
[33] = AUC (0 to 24 hrs) in Sprague-Dawley rat 0.3 mg/kg, iv measured at 0.083 to 24 hrs by LC-MS/MS analysis; assay type: ADME, organism-based; parameters: time lower 0.083 hrs, dose 0.3 mg/kg, time upper 24 hrs, route iv; details: in vivo
[34] = Oral bioavailability in Sprague-Dawley rat 3 mg/kg measured at 0.083 to 24 hrs by LC-MS/MS analysis; assay type: ADME, organism-based; details: in vivo, time 0.083-24 hrs
[35] = Clearance in Sprague-Dawley rat 1 mg/kg, iv measured at 0.083 to 24 hrs by LC-MS/MS analysis; assay type: ADME, organism-based; details: in vivo, time 0.083-24 hrs
[36] = Oral bioavailability in Sprague-Dawley rat 3 mg/kg, iv measured at 0.083 to 24 hrs by LC-MS/MS analysis; assay type: ADME, organism-based; details: in vivo, time 0.083-24 hrs
[37] = Volume of distribution at steady state in Sprague-Dawley rat 3 mg/kg, po or 1 mg/kg, iv measured at 0.083 to 24 hrs by LC-MS/MS analysis; assay type: ADME, organism-based; details: in vivo, time 0.083-24 hrs
[38] = species on record: Homo sapiens; test: Binding affinity to human SHP2 E76K mutant assessed as change in entropy by isothermal titration calorimetry assay
[39] = AUC (0 to 24 hrs) in Sprague-Dawley rat 1 mg/kg, iv measured at 0.083 to 24 hrs by LC-MS/MS analysis; assay type: ADME, organism-based; parameters: dose 1 mg/kg, time 0.083-24 hrs, route iv; details: in vivo
[40] = species on record: Homo sapiens; test: Binding affinity to human SHP2 E76K mutant assessed as change in enthalpy by isothermal titration calorimetry assay
[41] = Half life in Sprague-Dawley rat 1 mg/kg, iv measured at 0.083 to 24 hrs by LC-MS/MS analysis; assay type: ADME, organism-based; details: in vivo, time 0.083-24 hrs

N[C@@H]1CCCC12CCN(c1nc3[nH]nc(-c4cccc(Cl)c4Cl)c3c(=O)[nH]1)CC2
CLint scaled ([1]; read-out: CL): 2 mL/min/kg | Papp B→A [2]: 3.64 ×10⁻⁶ cm/s | Papp B→A [3]: 9.5 ×10⁻⁶ cm/s | clearance [4]: 12 mL/min/kg | half-life [5]: 2.7 h | CLint scaled [6]: 26 mL/min/kg | bioavailability [7]: 3% | Papp A→B [8]: 0.3 ×10⁻⁶ cm/s | Papp A→B [9]: 0.27 ×10⁻⁶ cm/s | Vdss [10]: 2.2 L/kg

Cc1nc(N2CCC3(CC2)CO[C@@H](C)[C@H]3N)c(Cl)c(=O)n1-c1cccc(Cl)c1Cl
half-life [11]: 5.5 h | CLint scaled ([1]; read-out: CLH): 10 mL/min/kg | half-life [12]: 1.8 h | Papp B→A [13]: 19 ×10⁻⁶ cm/s | bioavailability [14]: 119% | Vd [15]: 3.7 L/kg | bioavailability [16]: 53% | clearance [17]: 41.3 mL/min/kg | CLint scaled [18]: 74 mL/min/kg | CLint scaled [6]: 72 mL/min/kg | bioavailability [19]: 88% | CLint scaled [20]: 529 mL/min/kg | CLint scaled [21]: 37 mL/min/kg | clearance [22]: 11.6 mL/min/kg | bioavailability [23]: 38% | half-life [24]: 6 h | clearance [25]: 9.2 mL/min/kg | half-life [26]: 7.3 h | clearance [27]: 8.3 mL/min/kg | Papp A→B [28]: 18 ×10⁻⁶ cm/s | Vd [29]: 4.6 L/kg | Vd [30]: 4.5 L/kg | Vd [31]: 3.5 L/kg

CCNc1nccc(-c2n[nH]c3nc(N4CCC5(CC4)CO[C@@H](C)[C@H]5N)cnc23)c1Cl
Papp B→A [2]: 25 ×10⁻⁶ cm/s | Papp B→A [3]: 40.7 ×10⁻⁶ cm/s | pKa [32]: 9.3 | Papp A→B [8]: 8.6 ×10⁻⁶ cm/s | Papp A→B [9]: 12.4 ×10⁻⁶ cm/s

CNc1nccc(-c2n[nH]c3nc(N4CCC(C)(N)CC4)cnc23)c1Cl
Papp B→A [2]: 8 ×10⁻⁶ cm/s | Papp B→A [3]: 28 ×10⁻⁶ cm/s | clearance [4]: 37 mL/min/kg | half-life [5]: 4.8 h | pKa [32]: 10.4 | AUC(0-t) [33]: 0.314 µM·h | Papp A→B [8]: 2.1 ×10⁻⁶ cm/s | Papp A→B [9]: 4.2 ×10⁻⁶ cm/s | Vdss [10]: 12.9 L/kg | bioavailability [34]: 38%

C[C@@H]1OCC2(CCN(c3cnc4c(-c5cccc(Cl)c5Cl)n[nH]c4n3)CC2)[C@@H]1N
Papp B→A [2]: 10 ×10⁻⁶ cm/s | Papp B→A [3]: 10.2 ×10⁻⁶ cm/s | Papp A→B [8]: 6.4 ×10⁻⁶ cm/s | Papp A→B [9]: 9 ×10⁻⁶ cm/s

CC1(N)CCN(c2cnc3c(-c4cccc(Cl)c4Cl)n[nH]c3n2)CC1
CL [35]: 70% | Papp B→A [2]: 6.8 ×10⁻⁶ cm/s | Papp B→A [3]: 8.5 ×10⁻⁶ cm/s | bioavailability [36]: 70% | Vdss [37]: 21 L/kg | -TdeltaS [38]: -5.44 kcal/mol | AUC(0-t) [39]: 2 µM·h | pKa [32]: 10.4 | deltaH [40]: -3.67 kcal/mol | half-life [41]: 13 h | Papp A→B [8]: 6 ×10⁻⁶ cm/s | Papp A→B [9]: 6 ×10⁻⁶ cm/s

Cc1nc(N2CCC3(CC2)CO[C@@H](C)[C@H]3N)cc(=O)n1-c1cccc(Cl)c1Cl (stereo in doubt)
half-life [11]: 8.6 h | CLint scaled ([1]; read-out: CL): 0.7 mL/min/kg | half-life [12]: 5.9 h | Papp B→A [13]: 32 ×10⁻⁶ cm/s | bioavailability [14]: 99% | Vd [15]: 2.5 L/kg | bioavailability [16]: 89% | clearance [17]: 5.8 mL/min/kg | CLint scaled [18]: 21 mL/min/kg | CLint scaled [6]: 0.8 mL/min/kg | bioavailability [19]: 106% | CLint scaled [20]: 17 mL/min/kg | CLint scaled [21]: 28 mL/min/kg | clearance [22]: 9.2 mL/min/kg | bioavailability [23]: 80% | half-life [24]: 3.5 h | clearance [25]: 4.2 mL/min/kg | half-life [26]: 9.4 h | clearance [27]: 4.2 mL/min/kg | Papp A→B [28]: 12 ×10⁻⁶ cm/s | Vd [29]: 2.6 L/kg | Vd [30]: 3.4 L/kg | Vd [31]: 2.9 L/kg

From ChEMBL document CHEMBL5096203, “Discovery of 6-[(3S,4S)-4-Amino-3-methyl-2-oxa-8-azaspiro[4.5]decan-8-yl]-3-(2,3-dichlorophenyl)-2-methyl-3,4-dihydropyrimidin-4-one (IACS-15414), a Potent and Orally Bioavailable SHP2 Inhibitor” (J Med Chem, 2021)
